Assay results as given in US8691818B2, “Cyclic triazo and diazo sodium channel blockers” (University Of Greenwich, priority 2008, dated 2014).
Counter-ions that a name gives are not always drawn. Like-named read-outs stand apart in the source and are kept apart here.

Key:
[1] = target: T1, DiHydroFolate Reductase (DHFR) (Rattus norvegicus, UniProt Q920D2); experiment: Inhibition of binding of [3H]methotrexate to rat liver homogenate supernatant; conditions: for inhibition at 125 µM: read-out: [3H]mtx binding (% inhibition @ 125 μM)
T1 construct: from tissue; host or cells: rat liver homogenate supernatant
T1 sequence (Q920D2 1-187): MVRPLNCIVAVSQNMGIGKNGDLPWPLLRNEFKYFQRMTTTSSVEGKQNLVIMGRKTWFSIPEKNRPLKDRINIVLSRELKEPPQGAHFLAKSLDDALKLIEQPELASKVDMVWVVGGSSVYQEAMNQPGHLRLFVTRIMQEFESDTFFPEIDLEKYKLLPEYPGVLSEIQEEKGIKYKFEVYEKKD
Procedure, shortened: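 Displacement of [3H]methotrexate binding to rat liver homogenate supernatant, prepared at 4 °C in pH 6.0 phosphate buffer with 15 mM dithiothreitol. Values are mean±sem over the number of experiments shown.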

hERG = hERG (Homo sapiens, UniProt Q12809); experiment: hERG: inhibition of binding of [3H]astemizole to HEK-293 cells expressing human recombinant hERG; conditions: for inhibition at 10 µM: human, probe [3H]astemizole
hERG, sequence (Q12809 whole entry): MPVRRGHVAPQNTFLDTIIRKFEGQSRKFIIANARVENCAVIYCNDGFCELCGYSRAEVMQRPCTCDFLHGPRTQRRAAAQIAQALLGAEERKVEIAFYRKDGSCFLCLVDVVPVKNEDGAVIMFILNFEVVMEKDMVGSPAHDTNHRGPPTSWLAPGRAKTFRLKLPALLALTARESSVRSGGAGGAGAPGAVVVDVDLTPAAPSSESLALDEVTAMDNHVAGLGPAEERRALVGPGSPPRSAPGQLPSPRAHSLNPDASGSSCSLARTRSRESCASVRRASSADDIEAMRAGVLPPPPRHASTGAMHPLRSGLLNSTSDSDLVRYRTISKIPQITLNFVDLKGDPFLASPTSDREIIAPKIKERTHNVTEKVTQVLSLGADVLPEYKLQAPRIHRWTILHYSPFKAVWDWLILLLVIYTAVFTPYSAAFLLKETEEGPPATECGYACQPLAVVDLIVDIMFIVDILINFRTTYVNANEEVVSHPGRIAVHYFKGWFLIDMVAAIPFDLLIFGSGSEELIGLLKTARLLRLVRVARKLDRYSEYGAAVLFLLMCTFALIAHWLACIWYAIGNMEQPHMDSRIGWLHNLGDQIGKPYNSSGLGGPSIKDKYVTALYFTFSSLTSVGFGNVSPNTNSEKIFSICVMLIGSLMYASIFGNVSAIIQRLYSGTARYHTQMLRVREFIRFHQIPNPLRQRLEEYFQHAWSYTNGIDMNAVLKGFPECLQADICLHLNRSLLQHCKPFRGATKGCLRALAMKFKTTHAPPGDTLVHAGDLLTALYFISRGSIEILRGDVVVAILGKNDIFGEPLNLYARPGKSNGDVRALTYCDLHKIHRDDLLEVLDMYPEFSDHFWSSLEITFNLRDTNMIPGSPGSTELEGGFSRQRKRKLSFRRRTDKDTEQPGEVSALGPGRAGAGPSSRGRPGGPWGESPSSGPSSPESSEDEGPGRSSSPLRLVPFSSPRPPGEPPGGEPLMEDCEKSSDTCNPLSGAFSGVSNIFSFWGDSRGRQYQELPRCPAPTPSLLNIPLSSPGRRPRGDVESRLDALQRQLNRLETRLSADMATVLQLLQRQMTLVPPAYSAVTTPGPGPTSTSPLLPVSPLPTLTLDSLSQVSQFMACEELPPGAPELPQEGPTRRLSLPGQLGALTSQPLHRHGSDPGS

sodium channel = experiment: [14C]guanidine flux: veratrine-evoked uptake of [14C]guanidine into rat forebrain synaptosomes (primary sodium channel assay); format: biochemical; conditions: 30° for 2½ min
Procedure, shortened: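 Synaptosomal fraction from male Wistar rat forebrain (without cerebellum/medulla), 20-25 mg wet weight/ml. Veratrine-evoked [14C]guanidine uptake at 30° for 2½ min across a compound concentration range; IC50 from concentration-effect curves, mean±sem.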

Sodium Channel, Site 2 = format: binding, Wistar Rat; conditions: for IC50: read-out: [3H]BTX-B binding Extrapolated IC50

Structure (SMILES)	inhibition at 125 µM ([1]; 125 μM) [%]	melting point [°C]	IC50 (hERG) [µM]	inhibition at 10 µM (hERG) [%]	IC50 (sodium channel) [µM]	[3H]BTX-B binding % inhibition (@ 10 μM) (Sodium Channel, Site 2) [%]	IC50 (Sodium Channel, Site 2) [µM]	other results
Cn1nc(-c2ccc3c(c2)OC(F)(F)O3)c(N)nc1=N [CEN-81, 5(3)-Amino-6-[5-(2,2-difluorobenzodioxolo)]-dihydro-3(5)-imino-2-methyl-1,2,4-triazine]	-2	297 to 298	49	17	251			
Nc1nnc(-c2cc(Cl)ccc2C(F)(F)F)c(N)n1 [CEN-200, 3,5-Diamino-6-(5-chloro-2-trifluoromethylphenyl)-1,2,4-triazine]		242 to 243				14	61	
Cn1nc(-c2cccc(C(F)(F)F)c2Cl)c(N)nc1=N [CEN-177, 5(3)-Amino-6-(2-chloro-3-trifluoromethyphenyl)-2,3(2,5)-dihydro-3(5)-imino-2-methyl-1,2,4-triazine]	16	205 to 207	35	22	14			
Nc1ncc(-c2cccc(Cl)c2Cl)c(N)n1 [CEN-41, 2,4-Diamino-5-(2,3-dichlorophenyl)pyrimidine]	76	289 to 291	> 200	-3	60.3			
Nc1nnc(-c2cccc(C(F)(F)F)c2Cl)c(N)n1 [CEN-199, 3,5-Diamino-6-(2-chloro-3-trifluoromethylphenyl)-1,2,4-triazine]						29	25	
N=c1nc(N)c(-c2cc(C(F)(F)F)cc(Cl)c2F)nn1CC(F)(F)C(F)F.O=S(=O)(O)C(F)(F)F [CEN-210, 5(3)-Amino-6-(3-chloro-2-fluoro-5-trifluoromethyphenyl)-2,3(2,5)-dihydro-3(5)-imino-2-(2,2,3,3-tetrafluoropropyl)-1,2,4-triazine trifluoromethanesulphonate]						43	13	
Cc1ccc(-c2nnc(N)nc2-c2ccc(C)cc2)cc1 [CEN-126, 3-Amino-5,6-bis(4-methylphenyl)-1,2,4-triazine]	-12	134 to 136	3	79	58.9			
Nc1nnc(C(c2ccc(Cl)cc2)c2ccc(Cl)cc2)c(N)n1 [CEN-213, 3,5-Diamino-6-[1,1 bis-(4-chlorophenyl)methyl]-1,2,4-triazine]						−2	> 200	
CCn1nc(-c2cccc3ccccc23)c(N)nc1=N [CEN-77, 5(3)-Amino-6-(1-naphthyl)-2,3(2,5)-dihydro-3(5)-imino-2-ethyl-1,2,4-triazine]	-1	191 to 193	18	36	14.5			
CC(C)C(c1ccccc1)c1nnc(N)nc1N (stereo not drawn) [CEN-201, 3,5-Diamino-6-(1-isopropyl-1-phenylmethy)-1,2,4-triazine]						3	> 200	
Cn1nc(-c2ccccc2Oc2ccccc2)c(N)nc1=N [CEN-105, 5(3)-Amino-6-(2-phenoxyphenyl)-2,3(2,5)-dihydro-3(5)-imino-2-methyl-1,2,4-triazine]	86	164 to 166	19	35	100			
Cn1nc(-c2cc(F)c(F)cc2Cl)c(N)nc1=N [CEN-204, 5(3)-Amino-6-(2-chloro-4,5-difluoro-5-phenyl)-2,3(2,5)-dihydro-3(5)-imino-2-methyl-1,2,4-triazine mesylate]						52	9	
Nc1nnc(-c2cccc3c2-c2ccccc2C3)c(N)n1 [CEN-129]	-3	240 to 242	133	7	190			
Nc1nnc(-c2ccc(Oc3ccccc3)cc2)c(N)n1 [CEN-93, 3,5-Diamino-6-(4-phenoxphenyl)-1,2,4-triazine]	4	266 to 267	19	35	63.1			
Cn1nc(-c2cc(Cl)sc2Cl)c(N)nc1=N [CEN-80, 5(3)-Amino-6-[3-(2,5-dichlorothienyl)]-2,3(2,5)-dihydro-3(5)-imino-2-methyl-1,2,4-triazine]	-1	286 to 288	61	14	123			
Nc1nnc(-c2ccc(F)c(F)c2F)c(N)n1 [CEN-206, 3,5-Diamino-6-(2,3,4-trifluorophenyl)-1,2,4-triazine]		242 to 243				24	32	
Cn1nc(-c2cccc3ccccc23)c(N)nc1=N [CEN-78, 5(3)-Amino-6-(1-naphthyl)-2,3(2,5)-dihydro-3(5)-imino-2-methyl-1,2,4-triazine]	9	248 to 250	32	24	102			
Cc1ccc(S(=O)(=O)O)cc1.Nc1nnc(-c2c(C(F)(F)F)ccc(Cl)c2Cl)c(N)n1 [CEN-209, 3,5-Diamino-6-(2,3-dichloro-6-trifluoromethylphenyl)-1,2,4-triazine tosylate]						36	18	
COc1ccc(-c2nnc(N)nc2-c2ccc(OC)cc2)cc1 [CEN-127, 3-Amino-5,6-bis(4-methoxylphenyl)-1,2,4-triazine]	-24	179 to 181	> 200	2	85.1			
CC(C)(Oc1ccc(Cl)cc1)c1nnc(N)nc1N [CEN-215, 3,5-Diamino-6-{1-(4-chlorophenoxy)-1-methyl}ethyl-1,2,4-triazine tosylate]						22	35	
Cc1ccc(S(=O)(=O)O)cc1.Nc1nnc(-c2cc(C(F)(F)F)ccc2C(F)(F)F)c(N)n1 [CEN-198, 3,5-Diamino-6-[2,5-bis(trifluoromethyl)phenyl]-1,2,4-triazine tosylate]						23	34	
CCn1nc(-c2cc(C(F)(F)F)cc(Cl)c2F)c(N)nc1=N [CEN-203, 5(3)-Amino-6-(3-chloro-2-fluoro-5-trifluoromethyphenyl)-2,3(2,5)-dihydro-3(5)-imino-2-ethyl-1,2,4-triazine mesylate]						102	< 0.5	
Cc1ccc(S(=O)(=O)O)cc1.Nc1nnc(-c2c(F)c(F)c(F)c(F)c2F)c(N)n1 [CEN-212, 3,5-Diamino-6-(2,3,4,5,6-pentafluorophenyl)-1,2,4-triazine tosylate]						0	> 200	
N=c1nc(N)c(-c2cc(C(F)(F)F)cc(Cl)c2F)nn1CC(F)(F)C(F)(F)F.O=S(=O)(O)C(F)(F)F [CEN-211, 5(3)-Amino-6-(3-chloro-2-fluoro-5-trifluoromethyphenyl)-2,3(2,5)-dihydro-3(5)-imino-2-(2,2,3,3,3-pentafluoropropyl)-1,2,4-triazine trifluoromethanesulphonate]						106	< 0.5	
Cc1ccc(S(=O)(=O)O)cc1.Nc1nnc(-c2c(Cl)ccc(Cl)c2Cl)c(N)n1 [CEN-214, 3,5-Diamino-6-(2,3,6-trichlorophenyl)-1,2,4-triazine tosylate]						10	90	
CCn1nc(-c2cc(F)c(F)cc2Cl)c(N)nc1=N.CS(=O)(=O)O [CEN-205, 5(3)-Amino-6-(2-chloro-4,5-difluoro-5-phenyl)-2,3(2,5)-dihydro-3(5)-imino-2-ethyl-1,2,4-triazine mesylate]						79	3	
Nc1nnc(C2c3ccccc3Oc3ccccc32)c(N)n1 [CEN-182, 3,5-Diamino-6-(9-xanthyl)-1,2,4-triazine]	6	159 to 161	90	10	214			
Cn1nc(-c2cc(C(F)(F)F)cc(Cl)c2F)c(N)nc1=N [CEN-202, 5(3)-Amino-6-(3-chloro-2-fluoro-5-trifluoromethyphenyl)-2,3(2,5)-dihydro-3(5)-imino-2-methyl-1,2,4-triazine mesylate]						90	1	
Nc1nnc2c3ccccc3c3ccccc3c2n1 [CEN-128]			53	16	251			inhibition at 125 µM [1]: 0%
CS(=O)(=O)O.Cn1nc(C23CC4CC(CC(C4)C2)C3)c(N)nc1=N [CEN-100, 6-Adamantyl-5(3)-amino-2,3(2,5)-dihydro-3(5)-imino-2-methyl-1,2,4-triazine methanesulfonate]					77.6			[3H]mtx binding (% inhibition @ 125 μM) ([1]; 125 μM): 10%; hERG % inhibition @ 10 μM (hERG; 10 μM, [3H]astemizole binding): 30%; IC50 (hERG; read-out: hERG IC50 (μM) (extrapolated from 10 μM inh'n), extrapolated assuming binding slope 1.0): 23 µM
